Consider 25 compounds from PubChem BioAssay AID330 (DTP/NCI, 2004).

Several values for one entry are separate records, joined by “and”; a condition that tells them apart may be missing. Equal entries are not always repeated. Toxic doses and inconclusive results are not listed.

This assay has as its system P388 leukemia ip, CD2F1 mice, survival T/C. Briefly: NCI In Vivo Anticancer Drug Screen. Data for tumor model P388 Leukemia (intraperitoneal) in CD2F1 (CDF1) mice. As to conditions: endpoint: median survival time, higher = longer survival. Summed up: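 Mice carrying the transplanted tumor received test compound or vehicle. Survival was recorded in each group, and the value is the treated-group measurement divided by that of the vehicle-treated control group.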

[1] abbreviates: dose: 100.0 mg/kg/injection, schedule: Q04DX003 (ip), vehicle: saline with Tween-80.
[2] abbreviates: dose: 200.0 mg/kg/injection, schedule: Q04DX003 (ip), vehicle: saline with Tween-80.
Setting [3] is: dose: 50.0 mg/kg/injection, schedule: Q01DX005 (ip), vehicle: Klucel (hydroxypropylcellulose) (HPC).
Setting [4] is: dose: 100.0 mg/kg/injection, schedule: Q01DX005 (ip), vehicle: Klucel (hydroxypropylcellulose) (HPC).
The mark [5] stands for this setting: dose: 200.0 mg/kg/injection, schedule: Q01DX005 (ip), vehicle: Klucel (hydroxypropylcellulose) (HPC).
[6] abbreviates: dose: 60.0 mg/kg/injection, schedule: Q01DX005 (ip), vehicle: saline with Tween-80.
[7] abbreviates: dose: 120.0 mg/kg/injection, schedule: Q01DX005 (ip), vehicle: saline with Tween-80.
[8] abbreviates: dose: 240.0 mg/kg/injection, schedule: Q01DX005 (ip), vehicle: saline with Tween-80.
Setting [9] is: dose: 12.5 mg/kg/injection, schedule: Q01DX009 (ip), vehicle: Klucel (hydroxypropylcellulose) (HPC).
Where [10] appears, read: dose: 60.0 mg/kg/injection, schedule: Q01DX005 (ip), vehicle: Klucel (hydroxypropylcellulose) (HPC).
Where [11] appears, read: dose: 120.0 mg/kg/injection, schedule: Q01DX005 (ip), vehicle: Klucel (hydroxypropylcellulose) (HPC).
Where [12] appears, read: dose: 12.5 mg/kg/injection, schedule: Q01DX009 (ip), vehicle: distilled water + Tween-80.
Setting [13] is: dose: 25.0 mg/kg/injection, schedule: Q01DX009 (ip), vehicle: distilled water + Tween-80.
The mark [14] stands for this setting: dose: 100.0 mg/kg/injection, schedule: Q01DX009 (ip), vehicle: distilled water + Tween-80.
The mark [15] stands for this setting: dose: 240.0 mg/kg/injection, schedule: Q01DX005 (ip), vehicle: Klucel (hydroxypropylcellulose) (HPC).

For `Cc1cc(Cl)c2ccccc2c1N`, the T/C under setting [1] was 100 % of control; the T/C (dose: 200.0 mg/kg/injection, schedule: Q01DX009 (ip), vehicle: other) was 105 % of control; the T/C under setting [2] is 95 % of control; the T/C (dose: 400.0 mg/kg/injection, schedule: Q01DX009 (ip), vehicle: other) was 90 % of control; the T/C (dose: 400.0 mg/kg/injection, schedule: Q04DX003 (ip), vehicle: saline with Tween-80) was 100 % of control.

As to `CC1=C([N+](=O)[O-])[C@@H](N2CCOCC2)[C@](C)(N2CCOCC2)S1`, the T/C by setting is: under setting [3], 105 % of control; under setting [4], 105 % of control; under setting [5], 105 % of control.

As to `O=C(Cc1nc2ccc(Cl)cc2[nH]c1=O)c1ccncc1`, the T/C under setting [6] was 94 % of control, the T/C under setting [7] was 100 % of control and the T/C under setting [8] is 119 % of control.

Take `C#CCOc1ccc(O)c(C(=O)OCCCOC(=O)c2cc(OCC#C)ccc2O)c1`: the T/C under setting [6] is 104 % of control, the T/C under setting [7] was 98 % of control and the T/C under setting [8] is 100 % of control.

For the compound `CSc1nc2ccc(N3C(=O)C=CC3=O)cc2s1`, the T/C is, setting by setting: (dose: 3.12 mg/kg/injection, schedule: Q01DX009 (ip), vehicle: Klucel (hydroxypropylcellulose) (HPC)) 102 % of control; (dose: 6.25 mg/kg/injection, schedule: Q01DX009 (ip), vehicle: Klucel (hydroxypropylcellulose) (HPC)) 105 % of control; under setting [9], 101 % of control.

On to `O=C(NCCCl)Nc1[nH]c(=O)ncc1I`, for which the T/C is 101 % of control (dose: 1.88 mg/kg/injection, schedule: Q01DX005 (ip), vehicle: saline with Tween-80); 101 % of control (dose: 3.75 mg/kg/injection, schedule: Q01DX005 (ip), vehicle: saline with Tween-80); 100 % of control (dose: 7.5 mg/kg/injection, schedule: Q01DX005 (ip), vehicle: saline with Tween-80); 95 % of control under setting [6].

With `O=[N+]([O-])c1ccc(S(=O)/N=C/c2ccccc2)c([N+](=O)[O-])c1` (centres undefined), the T/C runs as follows: under setting [9], 119 % of control; (dose: 25.0 mg/kg/injection, schedule: Q01DX009 (ip), vehicle: Klucel (hydroxypropylcellulose) (HPC)) 118 % of control.

As to `CN(C)C1=NC(N(C)C)=C2C=C(C(C)(C)C)C=C12`, the T/C is, setting by setting: under setting [10], 101 % of control; under setting [11], 101 % of control.

`CN(C)/C=C1\C(=O)O[C@H]2CCC[C@@]12C`: the T/C (dose: 100.0 mg/kg/injection, schedule: Q01DX001 (ip), vehicle: saline with Tween-80) is 107 % of control and the T/C (dose: 200.0 mg/kg/injection, schedule: Q01DX001 (ip), vehicle: saline with Tween-80) is 106 % of control.

For `c1ccc(-c2c[s+]c(-c3ccccc3)s2)cc1`, the T/C is 117 % of control (dose: 6.25 mg/kg/injection, schedule: Q01DX009 (ip), vehicle: distilled water + Tween-80); 100 % of control under setting [12]; 90 % of control under setting [13]; 99 % of control (dose: 50.0 mg/kg/injection, schedule: Q01DX009 (ip), vehicle: distilled water + Tween-80); 97 % of control under setting [14].

Take `CCOC(=O)C1C(c2ccc(OC)cc2OC)c2cc3c(cc2OC1(C)N1CCCC1)OCO3` (centres undefined): the T/C is, setting by setting: under setting [10], 90 % of control; under setting [11], 97 % of control; under setting [15], 94 % of control.

As for `O=C(Nc1ccc(Nc2ccccc2)cc1)Nc1cc([N+](=O)[O-])ccc1Cl`, the T/C was 90 % of control under setting [6], 98 % of control under setting [7] and 103 % of control under setting [8].

For the compound `CC(/C=N\Nc1ccc(Cl)c(Cl)c1)=N/NC(=O)C[n+]1ccccc1`, the T/C is, setting by setting: (dose: 25.0 mg/kg/injection, schedule: Q04DX002 (ip), vehicle: saline) 108 % of control; (dose: 50.0 mg/kg/injection, schedule: Q04DX002 (ip), vehicle: saline) 104 % of control; (dose: 100.0 mg/kg/injection, schedule: Q04DX002 (ip), vehicle: saline) 102 % of control and 92 % of control.

`CC(=O)Cc1cc(-c2cc(CC(C)=O)on2)no1`: the T/C runs as follows: (dose: 60.0 mg/kg/injection, schedule: Q01DX005 (ip), vehicle: saline) 103 % of control; (dose: 120.0 mg/kg/injection, schedule: Q01DX005 (ip), vehicle: saline) 99 % of control; (dose: 240.0 mg/kg/injection, schedule: Q01DX005 (ip), vehicle: saline) 100 % of control.

For the compound `CCCCCCCCC(C(=O)c1ccccc1)=C(C(F)(F)F)C(F)(F)F`, the T/C was 100 % of control (dose: 25.0 mg/kg/injection, schedule: Q04DX003 (ip), vehicle: saline with Tween-80); 95 % of control (dose: 50.0 mg/kg/injection, schedule: Q04DX003 (ip), vehicle: saline with Tween-80); 104 % of control under setting [1].

With `N[C@H]1CN([C@@H](C(=O)O)c2ccc(O)cc2)C1=O`, the T/C runs as follows: under setting [3], 105 % of control; under setting [4], 105 % of control; under setting [5], 103 % of control; (dose: 400.0 mg/kg/injection, schedule: Q01DX005 (ip), vehicle: Klucel (hydroxypropylcellulose) (HPC)) 99 % of control.

`COC(=O)N1N=C(c2ccccc2)C(C(=O)OC)(C(=O)OC)c2ccccc21`: the T/C under setting [6] was 93 % of control and the T/C under setting [7] is 87 % of control.

With `Cc1cc2c(cc1C)NC(C)CC(=O)N2` (centres undefined), the T/C reads like this: under setting [1], 109 % of control; under setting [2], 95 % of control.

For the compound `CC(=O)Nc1ccc2c(c1)N(O)C(=O)C2(C)C`, the T/C was 97 % of control under setting [3], 95 % of control under setting [4] and 102 % of control under setting [5].

For `CCCCN(CCCC)C(=O)/C(O)=C(\O)C(=O)N(CCCC)CCCC`, the T/C is, setting by setting: (dose: 25.0 mg/kg/injection, schedule: Q01DX005 (ip), vehicle: saline) 90 % of control; (dose: 50.0 mg/kg/injection, schedule: Q01DX005 (ip), vehicle: saline) 96 % of control; (dose: 100.0 mg/kg/injection, schedule: Q01DX005 (ip), vehicle: saline) 92 % of control; (dose: 200.0 mg/kg/injection, schedule: Q01DX005 (ip), vehicle: saline) 113 % of control.

With `CSC1(c2ccccc2NS(=O)(=O)c2ccccc2)SCCS1`, the T/C was 102 % of control (dose: 50.0 mg/kg/injection, schedule: Q04DX003 (ip), vehicle: saline); 92 % of control (dose: 100.0 mg/kg/injection, schedule: Q04DX003 (ip), vehicle: saline); 89 % of control (dose: 200.0 mg/kg/injection, schedule: Q04DX003 (ip), vehicle: saline).

In the case of `O=C1OCCC(O)=C1C=NCc1ccccc1`, the T/C (dose: 25.0 mg/kg/injection, schedule: Q04DX003 (ip), vehicle: Klucel (hydroxypropylcellulose) (HPC)) is 105 % of control; the T/C (dose: 50.0 mg/kg/injection, schedule: Q04DX003 (ip), vehicle: Klucel (hydroxypropylcellulose) (HPC)) is 104 % of control; the T/C (dose: 100.0 mg/kg/injection, schedule: Q04DX003 (ip), vehicle: Klucel (hydroxypropylcellulose) (HPC)) is 99 % of control and 88 % of control.

Take `S=C(SSC(=S)Sc1ccccc1)Sc1ccccc1`: the T/C (dose: 100.0 mg/kg/injection, schedule: Q04DX002 (ip), vehicle: Klucel (hydroxypropylcellulose) (HPC)) is 112 % of control; the T/C (dose: 200.0 mg/kg/injection, schedule: Q04DX002 (ip), vehicle: Klucel (hydroxypropylcellulose) (HPC)) is 107 % of control; the T/C (dose: 400.0 mg/kg/injection, schedule: Q04DX002 (ip), vehicle: Klucel (hydroxypropylcellulose) (HPC)) was 102 % of control.

`CNC(=O)OCc1c(COC(=O)NC)c(-c2ccccc2)n(-c2ccc(Cl)c(Cl)c2)c1C`: the T/C under setting [12] is 117 % of control; the T/C under setting [13] was 160 % of control; the T/C under setting [14] is 155 % of control and 165 % of control; the T/C (dose: 200.0 mg/kg/injection, schedule: Q01DX009 (ip), vehicle: distilled water + Tween-80) was 155 % of control and 184 % of control; the T/C (dose: 400.0 mg/kg/injection, schedule: Q01DX009 (ip), vehicle: distilled water + Tween-80) was 87 % of control.

For the compound `CCOc1c(N=Nc2ccc([N+](=O)[O-])cc2)c(C)nn1C(=S)S`, the T/C by setting is: under setting [10], 100 % of control; under setting [11], 95 % of control; under setting [15], 100 % of control.
